Assay results from patent US4999042A, “Phenyl oximino-acetate fungicides” (Imperial Chemical Industries PLC, priority 1986, dated 1991).
Where two headings read alike, the source gives them in different places.

Key:
Assay type in all cases: in vivo
[1] = test system: Puccinia recondita (wheat); experiment: Foliar fungal disease control, Puccinia recondita on wheat
[2] = test system: Erysiphe graminis hordei (barley); experiment: Foliar fungal disease control, Erysiphe graminis hordei on barley; conditions: inoculated 24 hours before treatment
[3] = test system: Venturia inaequalis (apple); experiment: Foliar fungal disease control, Venturia inaequalis on apple
[4] = test system: Pyricularia oryzae (rice)
[5] = test system: Cercospora arachidicola (peanut); experiment: Foliar fungal disease control, Cercospora arachidicola on peanut
[6] = test system: Plasmopara viticola (vine); experiment: Foliar fungal disease control, Plasmopara viticola on vine
Maize (MZ) = experiment: Plant growth regulating whole plant screen, maize; conditions: 4000 ppm (4 kg/ha) spray; for P = Phytotoxicity: after 2-6 weeks
Protocol: (§1) This Example illustrates the plant growth regulating properties of compounds 1, 2, 5 and 12-15 of Table I when tested on a whole plant screen against two species of plant. The plant species are identified in Table IV with the leaf stage at which they were sprayed.
(§2) A formulation of each chemical was applied at 4000 ppm (4 kg/ha in a 1000 1/ha field volume) using a tracksprayer and a SS8004E (Teejet) nozzle.
(§3) After spraying, the plants were grown in a glasshouse with 25° C. day/22° C. night temperatures. Supplementary lighting was supplied when necessary to provide an average photoperiod of 16 hours (14 hours minimum).
(§4) After 2-6 weeks in the glasshouse, depending on species and time of year, the plants were visually assessed for morphological characteristics against a control plant sprayed with a blank formulation.

Apple (AP) = experiment: Plant growth regulating whole plant screen, apple; conditions: 4000 ppm (4 kg/ha) spray, visual score after 2-6 weeks
Protocol: as §1, §2, §3, §4

[7] = 100 ppm foliar spray plus root drench approx. 40 ppm a.i./dry soil, 1-2 days before inoculation
[8] = 100 ppm foliar spray plus root drench approx. 40 ppm a.i./dry soil

Compound | disease control grading, PUCCINIA RECONDITA (WHEAT) [1, 7] | disease control grading, ERYSIPHE GRAMINIS HORDEI (BARLEY) [2, 8] | disease control grading, VENTURIA INAEQUALIS (APPLE) [3, 7] | disease control grading, P[…] (RICE) [4, 7] | disease control grading, CERCOSPORA ARACHIDICOLA (PEANUT) [5, 7] | disease control grading, PLASMOPARA VITICOLA (VINE) [6, 7] | I = Interligular or internodal length reduction (Maize (MZ); visual score after 2-6 weeks) | R = Retardation (Maize (MZ); visual score after 2-6 weeks) | I = Interligular or internodal length reduction (Apple (AP)) | R = Retardation (Apple (AP)) | other results
CON=C(C(=O)OC)c1ccccc1/C=C/c1ccccc1 (single isomer, unassigned) [Compound 1, methyl O-methyl (2-(E)-styrylphenyl)oximino-acetate] | 0 (60-100% of disease on untreated plants) | 0 (60-100% of disease on untreated plants) | 3 (trace - 5% of disease on untreated plants) | 0 (60-100% of disease on untreated plants) | 0 (60-100% of disease on untreated plants) | 4 | 3 (61-100%) | 3 (61-100%) |  |  | P = Phytotoxicity (Maize (MZ)): 1 (less than 10%); A = Apical damage (Maize (MZ); visual score after 2-6 weeks): 3 (61-100%); G = Greening effect (Maize (MZ); visual score after 2-6 weeks): 2 (31-60%)
CON=C(C(=O)OC)c1ccccc1/C=C/c1ccccc1 (single isomer, unassigned) [Compound 2, methyl O-methyl (2-(E)-styrylphenyl)oximino-acetate] | 2 (6-25% of disease on untreated plants) | 0 (60-100% of disease on untreated plants) | 4 | 0 (60-100% of disease on untreated plants) | 0 (60-100% of disease on untreated plants) | 4 | 2 (31-60%) | 2 (31-60%) | 1 (10-30%) | 2 (31-60%) | A = Apical damage (Maize (MZ); visual score after 2-6 weeks): 2 (31-60%); G = Greening effect (Apple (AP)): 1 (10-30%)
CON=C(C(=O)OC)c1ccccc1/C=C/c1ccco1 (single isomer, unassigned) [Compound 3] | 0 (60-100% of disease on untreated plants) | 0 (60-100% of disease on untreated plants) | 4 | 0 (60-100% of disease on untreated plants) | 0 (60-100% of disease on untreated plants) | 0 (60-100% of disease on untreated plants) |  |  |  |  | 
CON=C(C(=O)OC)c1ccccc1/C=C/c1ccco1 (single isomer, unassigned) [Compound 4] | 4 | 0 (60-100% of disease on untreated plants) | 4 | 3 (trace - 5% of disease on untreated plants) | 3 (trace - 5% of disease on untreated plants) | 4 |  |  |  |  | 
CON=C(C(=O)OC)c1ccccc1Oc1ccc([N+](=O)[O-])cc1 (single isomer, unassigned) [Compound 7] | 0 (60-100% of disease on untreated plants) | 1 (26-59% of disease on untreated plants) | 3 (trace - 5% of disease on untreated plants) | 0 (60-100% of disease on untreated plants) | 0 (60-100% of disease on untreated plants) | 3 (trace - 5% of disease on untreated plants) |  |  |  |  | 
CON=C(C(=O)OC)c1ccccc1OC1CCCCC1 (single isomer, unassigned) [Compound 10] |  |  |  |  |  |  |  |  |  |  | disease control grading, PUCCINIA RECONDITA (WHEAT) ([1]; 25 ppm foliar spray only): 3 (trace - 5% of disease on untreated plants); disease control grading, ERYSIPHE GRAMINIS HORDEI (BARLEY) ([2]; 25 ppm foliar spray only): 3 (trace - 5% of disease on untreated plants); disease control grading, VENTURIA INAEQUALIS (APPLE) ([3]; 25 ppm foliar spray only): 2 (6-25% of disease on untreated plants); disease control grading, P[…] (RICE) ([4]; 25 ppm foliar spray only): 3 (trace - 5% of disease on untreated plants); disease control grading, CERCOSPORA ARACHIDICOLA (PEANUT) ([5]; 25 ppm foliar spray only): 0 (60-100% of disease on untreated plants); disease control grading, PLASMOPARA VITICOLA (VINE) ([6]; 25 ppm foliar spray only): 2 (6-25% of disease on untreated plants)
CON=C(C(=O)OC)c1ccccc1NC(=O)c1ccccc1 (single isomer, unassigned) [Compound 12] |  |  |  |  |  |  | 1 (10-30%) | 2 (31-60%) | 1 (10-30%) | 2 (31-60%) | G = Greening effect (Apple (AP)): 1 (10-30%)
CON=C(C(=O)OC)c1ccccc1NC(=O)c1ccco1 (single isomer, unassigned) [Compound 13] | 0 (60-100% of disease on untreated plants) | 0 (60-100% of disease on untreated plants) |  | 0 (60-100% of disease on untreated plants) | 2 (6-25% of disease on untreated plants) | 0 (60-100% of disease on untreated plants) | 1 (10-30%) | 2 (31-60%) | 1 (10-30%) | 2 (31-60%) | G = Greening effect (Apple (AP)): 1 (10-30%)
CON=C(C(=O)OC)c1ccccc1NC(=O)c1ccco1 (single isomer, unassigned) [Compound 14] |  |  |  |  |  |  |  |  | 1 (10-30%) | 1 (10-30%) | 
CON=C(C(=O)OC)c1ccccc1NC(=O)c1cccs1 (single isomer, unassigned) [Compound 15] |  |  |  |  |  |  |  |  | 1 (10-30%) | 1 (10-30%) | G = Greening effect (Apple (AP)): 1 (10-30%)
CON=C(C(=O)OC)c1cccc2c1oc1ccccc12 (single isomer, unassigned) [Compound 17] | 3 (trace - 5% of disease on untreated plants) | 0 (60-100% of disease on untreated plants) | 1 (26-59% of disease on untreated plants) | 0 (60-100% of disease on untreated plants) | 0 (60-100% of disease on untreated plants) | 2 (6-25% of disease on untreated plants) |  |  |  |  | 
CON=C(C(=O)OC)c1cccc2c1oc1ccccc12 (single isomer, unassigned) [Compound 18] | 3 (trace - 5% of disease on untreated plants) | 0 (60-100% of disease on untreated plants) | 4 | 1 (26-59% of disease on untreated plants) | 1 (26-59% of disease on untreated plants) | 4 |  |  |  |  | 
CON=C(C(=O)OC)c1cccc2c1Oc1ccccc1O2 (single isomer, unassigned) [Compound 32] | 4 | 3 (trace - 5% of disease on untreated plants) | 2 (6-25% of disease on untreated plants) | 0 (60-100% of disease on untreated plants) | 1 (26-59% of disease on untreated plants) | 4 |  |  |  |  | 
CON=C(C(=O)OC)c1ccccc1N(C)C(=O)c1cccs1 (single isomer, unassigned) [Compound 33] | 0 (60-100% of disease on untreated plants) | 0 (60-100% of disease on untreated plants) | 4 | 0 (60-100% of disease on untreated plants) | 0 (60-100% of disease on untreated plants) | 0 (60-100% of disease on untreated plants) |  |  |  |  | 
CO/N=C(\C(=O)OC)c1ccccc1Oc1ccccc1 [Compound 5, methyl O-methyl(2-phenoxyphenyl)oximino-acetate] | 0 (60-100% of disease on untreated plants) | 3 (trace - 5% of disease on untreated plants) | 3 (trace - 5% of disease on untreated plants) | 1 (26-59% of disease on untreated plants) | 0 (60-100% of disease on untreated plants) | 0 (60-100% of disease on untreated plants) | 3 (61-100%) | 3 (61-100%) |  |  | P = Phytotoxicity (Maize (MZ)): 1 (less than 10%); A = Apical damage (Maize (MZ); visual score after 2-6 weeks): 3 (61-100%)
CO/N=C(/C(=O)OC)c1ccccc1Oc1ccccc1 [Compound 6, methyl O-methyl(2-phenoxyphenyl)oximino-acetate] | 4 | 4 | 4 | 3 (trace - 5% of disease on untreated plants) | 3 (trace - 5% of disease on untreated plants) | 4 |  |  |  |  | 
